Key:
[1] = test system: P. falciparum parasites (DV morphology); experiment: Digestive vacuole phenotype, light microscopy of Giemsa-stained parasites; format: cell-based, Plasmodium falciparum; conditions: 3.3 µM compound
malaria parasite = conditions: cited from earlier work

CC(C)C[C@H](NC(=O)[C@H]1O[C@@H]1C(=O)O)C(=O)NCCCCN=C(N)N [Compound E64, E64]
DV phenotype [1]: swollen and dark staining DV phenotype

Nc1cc(Cl)ccc1Cl [2,5-dichloroaniline]
Antimalarial activity (malaria parasite): without antimalarial activity

— PMC3574796 (Future medicinal chemistry, 2012)
